These results are taken from patent US20230285417A1, “FORMULATIONS OF 19-NOR C3,3-DISUBSTITUTED C21-N-PYRAZOLYL STEROID AND METHODS OF USE THEREOF” (priority 2020, published 2023).

Type in all cases: physicochemical
Data set [1] in a line: Solubility of the compound of formula (I) in aqueous media (water, pH 1.2 simulated gastric fluid, FaSSIF). From the text:
(§1) The compound of formula (I) belongs in the high permeability, poor solubility drug classification (BCS 2) described in the Biopharmaceutics Classification System (BCS). In the improved widely accepted Developability Classification System (DCS) discussed by Butler and Dressman, the high permeability low solubility category is further divided into two classifications. Specifically, the ratio of the dose to the solubility of the drug in FaSSIF can be used to predict the extent of human absorption. Class 2a describes compounds that have good permeability and poor solubility with a smaller dose to solubility ratio. Class 2b describes compounds that have a higher dose to solubility ratio and likely will be incompletely absorbed unless the drug is formulated in an already solubilized form, and therefore might present a major challenge to the formulator. […] That is, even for a dose of 10 mg about only 1.2% of the dose of the drug may dissolve in a glass of water or FaSSIF. For Class 2b compounds the system predicts that particle reduction should have no impact on bioavailability. Martinez and Amidon offer: “In the case of solubility-limited absorption particle size exerts minimal effect on the fraction of drug absorbed. […]

Data set [2] can be described thus: Biopharmaceutics Classification System (BCS) classification. The following applies: high permeability, poor solubility.
Description: as §1

Data set [3] is described as follows: Particle size distribution by laser diffraction (Malvern Mastersizer 2000). The following applies: for D10 / D50 / D90: lot of micronized Form C of Compound 1 used in capsules of Table 16. The procedure:
The particle size distribution of Compound 1 was measured using a laser diffraction method. A sample of Compound 1 was either dispersed in water or wetted and dispersed in 0.2% w/v Tween 80 in water to a final concentration spanning approximately 2.5 to 60 mg/mL. Using a Malvern Mastersizer 2000 with a Hydro 2000S sample dispersion unit the obscuration was adjusted to between 10 and 30%. The stir speed was adjusted to 2250-2500 rpm, pre-measurement delay to approximately 30 s, sample measurement time to around 10-15 s, background measurement time to around 10-15 s and the particle shape assumed to be irregular. The samples were at a concentration between 0.0032-0.0044% vol and had specific surface area between 1.65 and 2.10 m2/g, a surface weighted mean between 2.87 and 3.64 μm, and a volume weighed mean between 3.62 and 4.67 μm. The measurements were obtained using the Mie scattering model (material refractive index=1.520, dispersant refractive index=1.330, absorption=0.001 or 0.1) with normal sensitivity.
Representative particle size distribution data for lots of un-micronized and micronized Form C of Compound 1 are shown in Table 7. In addition, representative particle size distribution for micronized Form A of Compound 1 is also included in Table 7. FIG. 4A, FIG. 4B and FIG. 4C also contain particle size distribution profiles for three representative lots of micronized Form C of Compound 1. FIG. 13A and FIG. 13B contain particle size distribution profiles for micronized and un-micronized Form C of Compound 1a. FIG. 14A and FIG. 14B contain particle size distribution profiles for micronized and un-micronized Form C of Compound 1b. FIG. 15A and FIG. 15B contain particle size distribution profiles for micronized and un-micronized Form C of Compound 1c. FIG. 16A and FIG. 16B contain particle size distribution profiles for micronized and un-micronized Form C of Compound 1d.

Where [4] appears, read: lot used in Composition 30, 8 kg blend batch, 20 mg dose strength.
Setting [5] is: lot used in Composition 30, 12 kg blend batch, 30 mg dose strength.
The mark [6] stands for this setting: lot used in Composition 30, 34.7 kg blend batch, 20 mg dose strength.
The mark [7] stands for this setting: lot used in Composition 30, 52 kg blend batch, 30 mg dose strength.

`C[C@@]1(O)CC[C@H]2[C@H](CC[C@@H]3[C@@H]2CC[C@]2(C)[C@@H](C(=O)Cn4cc(C#N)cn4)CC[C@@H]32)C1` [Compound 1, 1-(2-((3R,5R,8R,9R,10S,13S,14S,17S)-3-hydroxy-3,13-dimethylhexadecahydro-1H-cyclopenta[a]phenanthren-17-yl)-2-oxoethyl)-1H-pyrazole-4-carbonitrile]: the “% of the dose that may dissolve in a glass of water or FaSSIF” value in data set [1] (10 mg dose) is reported as approximately 1.2%. For the same molecule, the “solubility in aqueous media” value in data set [1] (water, pH 1.2 simulated gastric fluid, FaSSIF) is “practically insoluble”. Also, the “drug classification, Biopharmaceutics Classification System (BCS)” value in data set [2] is listed as “BCS 2”.
Consider `C[C@@]1(O)CC[C@H]2[C@H](CC[C@@H]3[C@@H]2CC[C@]2(C)[C@@H](C(=O)Cn4cc(C#N)cn4)CC[C@@H]32)C1` [Lot A], for which, in data set [3] (listed as A), the D10 is given as 1.7 μm, the D50 worked out at 3.3 μm and the D90 came out at 6.8 μm.
Regarding `C[C@@]1(O)CC[C@H]2[C@H](CC[C@@H]3[C@@H]2CC[C@]2(C)[C@@H](C(=O)Cn4cc(C#N)cn4)CC[C@@H]32)C1` [Lot B], in data set [3] (listed as B), the D10 is 1.9 μm, the D50 is 3.5 μm and the D90 is 6.6 μm.
For `C[C@@]1(O)CC[C@H]2[C@H](CC[C@@H]3[C@@H]2CC[C@]2(C)[C@@H](C(=O)Cn4cc(C#N)cn4)CC[C@@H]32)C1` [Lot C], in data set [3] (listed as C), the D10 is 2.1 μm, the D50 is reported as 4.0 μm and the D90 was found to be 7.7 μm.
In the case of `C[C@@]1(O)CC[C@H]2[C@H](CC[C@@H]3[C@@H]2CC[C@]2(C)[C@@H](C(=O)Cn4cc(C#N)cn4)CC[C@@H]32)C1` [Micronized Form C of Compound 1], the “Particle Size Distribution D10” value came to 1.7 in data set [3] (setting [4]), 1.7 in data set [3] (setting [5]), 1.8 in data set [3] (setting [6]) and 2.1 in data set [3] (setting [7]). For the same molecule, the “Particle Size Distribution D50” value in data set [3] (setting [4]) amounted to 3.2; in data set [3] (setting [5]), 3.2; in data set [3] (setting [6]), 3.3; in data set [3] (setting [7]), 4.1. Also, the “Particle Size Distribution D90” value worked out at 6.1 in data set [3] (setting [4]), 6.1 in data set [3] (setting [5]), 6.5 in data set [3] (setting [6]) and 8.0 in data set [3] (setting [7]).
